The subject of assay [1] is C. albicans CAF2-1 strain. Briefly: Anti-Candida activity, MIC measurement. Format: cell-based. To be noted: CAF21STRAIN, C. albicans CAF2-1, RPMI1640, 42-48 hours at 35° C., visual inspection, read-out: Anti-Candida Activity (minimum inhibitory concentration, MIC). The protocol:
(§1) For the C. albicans CAF2-1 strain, a fungal suspension from a standing culture for 48 hours at 30° C. in a Sabouraud dextrose liquid culture medium (SDB) was diluted with RPMI1640 medium to adjust a fungal suspension of 1.2×10^3 cells/mL. For the A. fumigatus Tsukuba strain, −80° C. stored strain was diluted with RPMI1640 medium to adjust to a fungal suspension of 4.5×10^3 cells/mL.
(§2) Using a U-bottomed 96 well plate, 8 samples/plate (A to H) of sample dilution solutions were prepared. On the 2nd to 12th rows were dispensed 10 μL of dimethyl sulfoxide solution. Weighted sample was dissolved in dimethyl sulfoxide to prepare a 2.5 mg/mL solution, 20 μL of this solution was added to the first row of the prepared plate, and 12 steps of two-fold step dilutions (10 μL of solution+10 μL of dimethyl sulfoxide solution) were performed on the plate. This sample dilution solution was dispensed in the amount of 1 μL to a flat-bottomed 96 well plate for MIC measurement to prepare a sample dilution plate.
(§3) The fungal suspension prepared in (1) was used in the amount of 99 μL/well to inoculate the flat-bottomed 96 well plate containing 1 μL/well of the test compound dilution prepared in (2), and a standing culture was carried out aerobically for 42-48 hours at 35° C.

Assay [2] concerns A. fumigatus Tsukuba strain. Briefly: Anti-Aspergillus activity, MIC measurement. The assay is classed as cell-based. Conditions: RPMI1640, 42-48 hours at 35° C., visual inspection, read-out: Anti-Aspergillus Activity (minimum inhibitory concentration, MIC). Here is the method: as §1, §2, §3

In brackets after ≈: the same amount, converted by molar mass.

Regarding `CCCCOc1ccc(Cc2cc(-c3cccnc3N)on2)cc1` [Example 67, 3-(3-(4-Butoxy-benzyl)-isoxazol-5-yl)-pyridin-2-ylamine], the MIC in assay [1] is 1.56 mg/L (≈ 4.82 µM); in assay [2] it was 0.78 mg/L (≈ 2.41 µM).

Consider `Nc1ncccc1-c1cc(Cc2ccc(NCc3ccccc3)cc2)no1` [Example 68, 3-(3-(4-Benzylamino-benzyl)-isoxazol-5-yl)-pyridin-2-ylamine], for which the MIC in assay [1] came to 0.1 mg/L (≈ 0.281 µM); in assay [2], 0.39 mg/L (≈ 1.09 µM).

In the case of `Nc1ncccc1-c1cc(Cc2ccc(Nc3ccccc3)cc2)no1` [Example 69, 3-(3-(4-Phenylamino-benzyl)-isoxazol-5-yl)-pyridin-2-ylamine], the MIC came out at 0.1 mg/L (≈ 0.292 µM) in assay [1] and 0.2 mg/L (≈ 0.584 µM) in assay [2].

With `CCCCc1ccc(Cc2cc(-c3cccnc3N)on2)cc1` [Example 70, 3-(3-(4-Butyl-benzyl)-isoxazol-5-yl)-pyridin-2-ylamine], the MIC in assay [1] is 1.56 mg/L (≈ 5.07 µM); in assay [2], 0.39 mg/L (≈ 1.27 µM).

As for `Nc1ncccc1-c1cc(Cc2ccc(Oc3cccc(F)c3)nc2)no1` [Example 71, 3-(3-(6-(3-Fluoro-phenoxy)-pyridin-3-ylmethyl)-isoxazol-5-yl)-pyridin-2-ylamine], the figures for the MIC in assay [1] and in assay [2] were 0.2 mg/L (≈ 0.552 µM) and 0.39 mg/L (≈ 1.08 µM), respectively.

For `Nc1ncccc1-c1cc(Cc2ccc(COc3ccc(F)cc3)nc2)no1` [Example 72, 3-(3-(6-(4-Fluoro-phenoxymethyl)-pyridin-3-ylmethyl)-isoxazol-5-yl)pyridin-2-ylamine], the MIC in assay [1] turned out to be 6.25 mg/L (≈ 16.6 µM); in assay [2] it was 12.5 mg/L (≈ 33.2 µM).

For the molecule `Nc1ncccc1-c1cc(Cc2ccc(Oc3ccccc3F)nc2)no1` [Example 74, 3-(3-(6-(2-Fluoro-phenoxy)-pyridin-3-ylmethyl)-isoxazol-5-yl)-pyridin-2-ylamin], the MIC in assay [1] was found to be 0.1 mg/L (≈ 0.276 µM); in assay [2], 0.2 mg/L (≈ 0.552 µM).

Consider `Nc1ncccc1-c1cc(Cc2ccc(Oc3ccc(F)cc3)nc2)no1` [Example 75, 3-(3-(6-(4-Fluoro-phenoxy)-pyridin-3-ylmethyl)-isoxazol-5-yl)-pyridin-2-ylamine], for which the MIC came out at 0.78 mg/L (≈ 2.15 µM) in assay [1] and 0.2 mg/L (≈ 0.552 µM) in assay [2].

As for `Nc1ncccc1-c1cc(Cc2ccc(Oc3cccnc3)cc2)no1` [Example 76, 3-(3-(4-(Pyridin-3-yloxy)-benzyl)-isoxazol-5-yl)-pyridin-2-ylamine], the MIC in assay [1] and in assay [2] was 1.56 mg/L (≈ 4.53 µM) in each case.

`Nc1ncccc1-c1cc(Cc2ccc(OCc3ccsc3)cc2)no1` [Example 77, 3-(3-(4-(Thiophen-3-ylmethoxy)-benzyl)-isoxazol-5-yl)-pyridin-2-ylamine]: the figures for the MIC in assay [1] and in assay [2] were 0.2 mg/L (≈ 0.55 µM) and 0.39 mg/L (≈ 1.07 µM), respectively.

With `Nc1ncccc1-c1cc(Cc2ccc(OC3CCCC3)cc2)no1` [Example 78, 3-(3-(4-Cyclopentyloxy-benzyl)-isoxazol-5-yl)-pyridin-2-ylamine], the MIC was found to be 0.78 mg/L (≈ 2.33 µM) in assay [1] and 1.56 mg/L (≈ 4.65 µM) in assay [2].

`Nc1ncccc1-c1cc(Cc2ccc(OC3CCCCC3)cc2)no1` [Example 79, 3-(3-(4-Cyclohexyloxy-benzyl)-isoxazol-5-yl)-pyridin-2-ylamine]: the MIC in assay [1] worked out at 1.56 mg/L (≈ 4.46 µM); in assay [2] it was 6.25 mg/L (≈ 17.9 µM).

As to `Nc1ncccc1-c1cc(Cc2ccc(CCc3ccco3)cc2)no1` [Example 80, 3-(3-(4-(2-Furan-2-yl-ethyl)-benzyl)-isoxazol-5-yl)-pyridin-2-ylamine], the MIC is 0.2 mg/L (≈ 0.579 µM) in assay [1] and 0.78 mg/L (≈ 2.26 µM) in assay [2].

As for `Nc1ncccc1-c1cc(Cc2ccc(Oc3cccc(F)c3)cc2)no1` [Example 81, 3-(3-(4-(3-Fluoro-phenoxy)-benzyl)-isoxazol-5-yl)-pyridin-2-ylamine], the MIC in assay [1] stood at 0.2 mg/L (≈ 0.553 µM); in assay [2], 0.39 mg/L (≈ 1.08 µM).

As for `Nc1ncccc1-c1cc(Cc2ccc(CCC3CCCO3)cc2)no1` (stereo not shown) [Example 82, 3-(3-(4-(2-(Tetrahydrofuran-2-yl)-ethyl)-benzyl)-isoxazol-5-yl)-pyridin-2-ylamine], the values for the MIC in assay [1] and in assay [2] were 0.2 mg/L (≈ 0.572 µM) and 0.39 mg/L (≈ 1.12 µM), respectively.

In the case of `Nc1ncccc1-c1cc(Cc2ccc(Oc3ccccc3F)cc2)no1` [Example 83], the MIC in assay [1] and in assay [2] was 0.2 mg/L (≈ 0.553 µM) each time.

Regarding `Nc1ncccc1-c1cc(Cc2cccc(-c3ccccn3)c2)no1` [Example 84, 3-(3-(3-Pyridin-2-yl-benzyl)-isoxazol-5-yl)-pyridin-2-ylamine], the MIC in assay [1] is 3.13 mg/L (≈ 9.53 µM); in assay [2] it was more than 25 mg/L.

With `Nc1ncccc1-c1cc(Cc2cccc(-c3ccccc3)c2)no1` [Example 85, 3-(3-Biphenyl-3-ylmethyl-isoxazol-5-yl)-pyridin-2-ylamine], the MIC was 1.56 mg/L (≈ 4.77 µM) in assay [1] and 3.13 mg/L (≈ 9.56 µM) in assay [2].

Consider `Nc1ncccc1-c1cc(Cc2ccc(COc3ccccc3)cc2)no1` [Example 86, 3-(3-(4-Phenoxymethyl-benzyl)-isoxazol-5-yl)-pyridin-2-ylamine], for which the MIC was 0.05 mg/L (≈ 0.14 µM) in assay [1] and 0.2 mg/L (≈ 0.56 µM) in assay [2].

In the case of `Nc1ncccc1-c1cc(Cc2ccc(OCc3ccccn3)c(F)c2)no1` [Example 87, 3-(3-(3-Fluoro-4-(pyridin-2-ylmethoxy)-benzyl)-isoxazol-5-yl)-pyridin-2-ylamine], the MIC in assay [1] was found to be 0.2 mg/L (≈ 0.531 µM); in assay [2] it was 0.78 mg/L (≈ 2.07 µM).

In the case of `Nc1ncccc1-c1cc(Cc2ccc(OCc3nccs3)cc2)no1` [Example 88, 3-(3-(4-(Thiazol-2-ylmethoxy)-benzyl)-isoxazol-5-yl)-pyridin-2-ylamine], the MIC in assay [1] and in assay [2] was 0.2 mg/L (≈ 0.549 µM) throughout.

In the case of `Nc1ncccc1-c1cc(Cc2ccc(OCc3ccc(F)c(F)c3)nc2)no1` [Example 89, 3-(3-(6-(3,4-Difluoro-benzyloxy)-pyridin-3-ylmethyl)-isoxazol-5-yl)-pyridin-2-ylamine], the MIC in assay [1] is 0.39 mg/L (≈ 0.989 µM); in assay [2], 0.2 mg/L (≈ 0.507 µM).

`Nc1ncccc1-c1cc(Cc2ccc(OCc3ccc(F)cc3F)nc2)no1` [Example 90, 3-(3-(6-(2,4-Difluoro-benzyloxy)-pyridin-3-ylmethyl)-isoxazol-5-yl)-pyridin-2-ylamine]: the MIC in assay [1] was 1.56 mg/L (≈ 3.96 µM); in assay [2], 0.39 mg/L (≈ 0.989 µM).

Regarding `Nc1ncccc1-c1cc(Cc2ccc(Oc3ccc(F)cc3)s2)no1` [Example 91, 3-(3-(5-(4-Fluoro-phenoxy)-thiophen-2-ylmethyl)-isoxazol-5-yl)-pyridin-2-ylamine], the MIC in assay [1] turned out to be 0.2 mg/L (≈ 0.544 µM); in assay [2], 0.1 mg/L (≈ 0.272 µM).

For the molecule `Cc1ccc(Cc2ccc(Cc3cc(-c4cccnc4N)on3)s2)cc1` [Example 92, 3-(3-(5-(4-Methyl-benzyl)-thiophen-2-ylmethyl)-isoxazol-5-yl)-pyridin-2-ylamine], the MIC in assay [1] and in assay [2] was 0.39 mg/L (≈ 1.08 µM) throughout.

Consider `Nc1ncccc1-c1cc(Cc2ccc(CCc3ccccn3)cc2)no1` [Example 93, 3-(3-(4-(2-Pyridin-2-yl-ethyl)-benzyl)-isoxazol-5-yl)-pyridin-2-ylamine], for which the MIC in assay [1] worked out at 0.2 mg/L (≈ 0.561 µM); in assay [2], 1.56 mg/L (≈ 4.38 µM).

Turning to `Nc1ncccc1-c1cc(Cc2ccc(OCc3ccc(F)cn3)c(F)c2)no1` [Example 94, 3-(3-(3-Fluoro-4-(5-fluoro-pyridin-2-ylmethoxy)-benzyl)-isoxazol-5-yl)pyridin-2-ylamine], the MIC amounted to 0.78 mg/L (≈ 1.98 µM) in assay [1] and 0.39 mg/L (≈ 0.989 µM) in assay [2].

On to `Nc1ncccc1-c1cc(Cc2ccc(OCc3ccccn3)cc2F)no1` [Example 95, 3-(3-(2-Fluoro-4-(pyridin-2-ylmethoxy)-benzyl)-isoxazol-5-yl)-pyridin-2-ylamine], for which the MIC is 0.39 mg/L (≈ 1.04 µM) in assay [1] and 1.56 mg/L (≈ 4.14 µM) in assay [2].

Take `Nc1ncccc1-c1cc(Cc2ccc(OCc3ccc(F)cn3)cc2F)no1` [Example 96, 3-(3-(2-Fluoro-4-(5-fluoro-pyridin-2-ylmethoxy)-benzyl)-isoxazol-5-yl)pyridin-2-ylamine]: the MIC in assay [1] stood at 3.13 mg/L (≈ 7.94 µM); in assay [2], 0.78 mg/L (≈ 1.98 µM).

As to `Nc1ncccc1-c1cc(Cc2ccc(Sc3ccccc3)nc2)no1` [Example 97, 3-(3-(6-Phenylsulfanyl-pyridin-3-ylmethyl)-isoxazol-5-yl)-pyridin-2-ylamine], the MIC in assay [1] worked out at 0.39 mg/L (≈ 1.08 µM); in assay [2], 0.2 mg/L (≈ 0.555 µM).

For the molecule `COc1cccc(COc2ccc(Cc3cc(-c4cccnc4N)on3)cc2)c1` [Example 98, 3-(3-(4-(3-Methoxy-benzyloxy)-benzyl)-isoxazol-5-yl)-pyridin-2-ylamine], the MIC in assay [1] and in assay [2] was 0.39 mg/L (≈ 1.01 µM) in each case.

`COc1cccc(COc2ccc(Cc3cc(-c4cccnc4N)on3)cc2)n1` [Example 99, 3-(3-(4-(6-Methoxy-pyridin-2-ylmethoxy)-benzyl)-isoxazol-5-yl)-pyridin-2-ylamine]: the results for the MIC in assay [1] and in assay [2] were 3.13 mg/L (≈ 8.06 µM) and 0.78 mg/L (≈ 2.01 µM), respectively.

In the case of `Nc1ncccc1-c1cc(Cc2ccc(Oc3cccnc3)nc2)no1` [Example 100, 3-(3-(6-(Pyridin-3-yloxy)-pyridin-3-ylmethyl)-isoxazol-5-yl)-pyrindin-2-ylamine], the MIC in assay [1] came to 3.13 mg/L (≈ 9.06 µM); in assay [2], 6.25 mg/L (≈ 18.1 µM).

Regarding `Cc1ccc(COc2ccc(Cc3cc(-c4ccc(N)nc4N)on3)cc2)nc1` [Example 101], the MIC in assay [1] and in assay [2] was 1.56 mg/L (≈ 4.03 µM) in each case.

As for `Cc1ccc(OCc2ccc(Cc3cc(-c4ccc(N)nc4N)on3)cc2)nc1` [Example 103, 3-(3-(4-(5-Methyl-pyridin-2-yloxymethyl)-benzyl)-isoxazol-5-yl)-pyridin-2,6-diamine], the MIC amounted to 1.56 mg/L (≈ 4.03 µM) in assay [1] and 0.78 mg/L (≈ 2.01 µM) in assay [2].

Source of the values: patent US8158657B2, “Heterocycles substituted pyridine derivatives and antifungal agent containing thereof” (Eisai R&D Management Co., Ltd., priority 2005, dated 2012).
